Test results: US8242128B2, “1,3-benzoxazolyl derivatives as kinase inhibitors” (Merck Patent GmbH, priority 2003, dated 2012)

Key:
[1] = target: TIE-2 (Homo sapiens, UniProt Q02763); test: Inhibition of TIE-2 (flashplate kinase assay, poly(Glu, Tyr) phosphorylation, 33P-ATP); format: biochemical
Procedure: The TIE-2 tests can be carried out, for example, analogously to the methods indicated in WO 02/44156.
The assay determines the inhibiting activity of the substances to be tested in the phosphorylation of the substrate poly(Glu, Tyr) by Tie-2 kinase in the presence of radioactive ^33P-ATP. The phosphorylated substrate binds to the surface of a “flashplate” microtitre plate during the incubation time. After removal of the reaction mixture, the microtitre plate is washed a number of times and the radioactivity on its surface is subsequently measured. An inhibiting effect of the substances to be measured results in lower radioactivity compared with an undisturbed enzymatic reaction.

[2] = test system: RAF; test: Inhibition of RAF; format: biochemical

Sequence of TIE-2 (Q02763 23-1124, species assumed): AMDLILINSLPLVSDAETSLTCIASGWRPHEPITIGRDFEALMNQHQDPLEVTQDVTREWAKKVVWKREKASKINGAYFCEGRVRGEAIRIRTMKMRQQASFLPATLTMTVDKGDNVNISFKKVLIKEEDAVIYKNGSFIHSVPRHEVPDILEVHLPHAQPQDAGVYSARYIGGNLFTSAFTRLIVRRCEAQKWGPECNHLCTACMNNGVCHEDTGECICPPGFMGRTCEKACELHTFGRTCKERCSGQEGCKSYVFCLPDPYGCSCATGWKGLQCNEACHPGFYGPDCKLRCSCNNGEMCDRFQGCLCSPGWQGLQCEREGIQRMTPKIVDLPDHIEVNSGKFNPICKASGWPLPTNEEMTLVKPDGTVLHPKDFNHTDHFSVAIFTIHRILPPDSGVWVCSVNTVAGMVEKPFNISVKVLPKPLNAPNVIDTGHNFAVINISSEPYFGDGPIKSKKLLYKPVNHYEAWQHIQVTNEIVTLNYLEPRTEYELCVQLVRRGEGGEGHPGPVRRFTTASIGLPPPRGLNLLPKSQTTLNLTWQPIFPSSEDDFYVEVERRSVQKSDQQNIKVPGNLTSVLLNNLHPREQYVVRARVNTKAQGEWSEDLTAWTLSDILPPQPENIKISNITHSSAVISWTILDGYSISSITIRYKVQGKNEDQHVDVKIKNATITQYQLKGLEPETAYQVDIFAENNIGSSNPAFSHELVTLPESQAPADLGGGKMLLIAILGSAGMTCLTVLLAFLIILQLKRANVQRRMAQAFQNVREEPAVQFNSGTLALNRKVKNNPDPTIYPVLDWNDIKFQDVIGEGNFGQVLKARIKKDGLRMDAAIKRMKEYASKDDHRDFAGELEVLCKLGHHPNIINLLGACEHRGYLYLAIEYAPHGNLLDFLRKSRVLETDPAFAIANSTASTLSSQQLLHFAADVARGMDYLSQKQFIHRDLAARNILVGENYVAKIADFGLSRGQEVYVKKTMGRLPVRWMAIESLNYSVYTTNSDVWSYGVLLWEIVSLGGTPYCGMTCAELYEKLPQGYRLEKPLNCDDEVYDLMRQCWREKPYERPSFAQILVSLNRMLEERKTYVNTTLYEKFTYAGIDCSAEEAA

Structure (SMILES): O=[N+]([O-])c1cc(Cl)cc2nc(Nc3ccc(Sc4ccncc4)cc3)oc12 [(5-Chloro-7-nitrobenzoxazol-2-yl)-[4-(pyridin-4-ylsulfanyl)phenyl]amine]
- IC50 [1]: 310 nM
- IC50 [2]: > 1000 nM
